{"source": "patent US20220315895A1", "about": "“METHODS OF MAKING OLIGOPOTENT AND UNIPOTENT PRECURSORS” (Transfusion Health, LLC, priority 2019, published 2022)", "key": {"CD56+ NK lineage cells": {"tested_on": "CD56+ NK lineage cells", "experiment": "NK-cell Maturation Culture (Example 41)", "type": "cell-based, human", "conditions": "for % Mature cells: CD3−/CD19−/CD56+ of Live / % Mature cells: CD16+ of Live/CD3−/CD19−/CD56+ / % Mature cells: CD94+ of Live/CD3−/CD19−/CD56+ / % Mature cells: CD161+ of Live/CD3−/CD19−: NK, +Formula I-expanded CD34+ cells", "description": "Following 14 days in Lymphoid Progenitor Differentiation Cultures, cells were placed into T- and NK-cell Maturation Cultures.\nFor NK-cell Maturation Cultures, cells from L Diff Cultures were plated at 25,000 cells per well in TC-treated 48-well plates with 250 μl of NK-cell Differentiation Medium, comprising StemSpan SFEM II medium with StemSpan NK Cell Differentiation Supplement and UM171 (STEMCELL Technologies), prepared according to the manufacturer's instructions, except substituting UM171 at 100 nM for the 1 μM UM729 called for in the protocol.\nFollowing 4 days of culture, NK- and T-cell Maturation Cultures' medias were replenished by adding an equal volume of the same culture media added on day 14. At days 21 and 25 of NK- or T-cell Maturation Cultures, half-media changes were performed by removing half of the total volume of media without disturbing cells and adding media freshly prepared as on day 14.\nFollowing 7 and 14 days in NK- and T-cell Maturation Culture (21 and 28 days from initiation of Lymphoid Differentiation Culture, respectively), cells were stained with antibodies to CD56, CD3, CD161, CD94, and CD16 and analyzed via flow cytometry to quantify T and NK lineage phenotypes.\n“Adult Peripheral Blood Unit Equivalents per CBU” was calculated by multiplying each condition's Scaled Output (per CD34+ cell) by 10^6, a conservative estimate of the number of CD34+ cells in an umbilical cord blood unit, then dividing that quantity by the number of CD56+, CD3+ or CD8+ cells typically found in a unit of donated adult peripheral blood: 5×10^7 (CD56+), 10^9 (CD3+) or 3×10^8, according to Invitrogen (https://assets.thermofisher.com/TFS-Assets/LSG/brochures/I-076357%20cell%20count%20table%20topp_WEB.pdf)."}, "[1]": {"tested_on": "expanded cord blood CD34+ cells, granulocyte (CD15+/CD14−) and monocyte (CD14+/CD15−) lineage", "experiment": "Myeloid (granulocyte and monocyte) Differentiation Culture after Expansion Culture (Example 38)", "type": "cell-based, human", "description": "At days 21 and 63, CD34+ enriched cells were placed into Differentiation Cultures, described below.\nDifferentiation cultures were initiated using Erythroid, Myeloid (granulocyte and monocyte), and Megakaryocyte HemaTox kits from STEMCELL technologies following the manufacturer's instructions. In brief, lineage media was prepared by adding cytokine cocktails for erythrocyte (SCF, IL-3, and EPO), myeloid (i.e. mixed granulocyte/monocyte, SCF, TPO, G-CSF, and GM-CSF) or megakaryocyte (SCF, IL-6, IL-9 and TPO) lineage differentiation to their respective kits' media, then adding approximately 30-100 CD34+ cells for erythroid or myeloid cultures, or 300-1000 CD34+ cells for megakaryoid cultures. Exact cell numbers plated were quantified for later analysis. All incubations for Differentiation Culture took place at 3% oxygen (controlled by nitrogen) and 5% CO2.\nFollowing seven days of erythroid or myeloid cultures, or ten days for megakaryoid cultures, differentiated cell output was quantified using flow cytometry. Erythroid output was quantified using anti-CD71 and anti-CD235a antibodies, and megakaryocyte lineage output was quantified using anti-CD41 and anti-CD42b antibodies. Granulocyte and monocyte lineage outputs were assessed in tandem, using CD14 and CD15 antibodies, with granulocyte lineage cells being CD15+/CD14−, and monocyte lineage cells being CD14+/CD15−.\nA number of quantities were calculated to assess the effect of expansion of CD34+ cells in the +Formula I Condition on the output of lineage differentiated cells. “Per-Assayed-CD34+ Cell Output” describes the output of differentiated cells per CD34+ cell placed into Differentiation Culture, and is calculated by dividing the total number of lineage-positive cells by the input CD34+ cell number quantified at Differentiation Culture initiation at day 1, 21, or 63. “Per-expanded-day-1-CD34+ cell output” describes the number of differentiated cells of a given lineage that may be produced from a single CD34+ cell following both Expansion Cell Culture (if expanded) followed by Differentiation Culture, and is calculated by multiplying Per-Assayed-CD34+ Cell Output by the fold expansion of CD34+ cells from day 1 to the day of analysis, either day 21 or day 63. […] We calculated therapeutic units for granulocyte precursors, using 50 billion (5×10^10) cells per dose as a conservative benchmark (Valentini, C. G., Farina, F., Pagano, L., and Teofili, L. (2017). Granulocyte Transfusions: A Critical Reappraisal. Biol. Blood Marrow Transplant. 23, 2034-2041). […]"}, "[2]": {"conditions": "+Formula I expansion to day 21, then 7 days differentiation"}, "[3]": {"conditions": "+Formula I expansion to day 63, then 7 days differentiation"}}, "data": [{"smiles": "CC(C)(C)C(=O)Nc1ccc2c(c1)C(O)c1ccccc1-2", "note": "(stereo not shown) [Compound 1.010]", "values": [{"measurement": "CD56+ NK cells, of total live cells", "setting": "CD56+ NK lineage cells; CD34+ cells first expanded for 14 days in +Formula I conditions", "result": 93, "unit": "%"}, {"measurement": "% Mature cells: CD3−/CD19−/CD56+ of Live", "setting": "CD56+ NK lineage cells; Lymphoid Diff day 21", "result": 91, "unit": "%"}, {"measurement": "% Mature cells: CD16+ of Live/CD3−/CD19−/CD56+", "setting": "CD56+ NK lineage cells; Lymphoid Diff day 21", "result": 31, "unit": "%"}, {"measurement": "% Mature cells: CD94+ of Live/CD3−/CD19−/CD56+", "setting": "CD56+ NK lineage cells; Lymphoid Diff day 21", "result": 7.8, "unit": "%"}, {"measurement": "% Mature cells: CD161+ of Live/CD3−/CD19−", "setting": "CD56+ NK lineage cells; Lymphoid Diff day 21", "result": 81, "unit": "%"}, {"measurement": "% Mature cells: CD3−/CD19−/CD56+ of Live", "setting": "CD56+ NK lineage cells; Lymphoid Diff day 28", "result": 95, "unit": "%"}, {"measurement": "% Mature cells: CD16+ of Live/CD3−/CD19−/CD56+", "setting": "CD56+ NK lineage cells; Lymphoid Diff day 28", "result": 16, "unit": "%"}, {"measurement": "% Mature cells: CD94+ of Live/CD3−/CD19−/CD56+", "setting": "CD56+ NK lineage cells; Lymphoid Diff day 28", "result": 3.5, "unit": "%"}, {"measurement": "% Mature cells: CD161+ of Live/CD3−/CD19−", "setting": "CD56+ NK lineage cells; Lymphoid Diff day 28", "result": 89, "unit": "%"}, {"measurement": "fold increase of per-expanded-day-1-CD34+ cell output, monocyte lineage, over uncultured cells", "setting": "[1]; [2]", "result": 800, "unit": "fold"}, {"measurement": "fold increase of per-expanded-day-1-CD34+ cell output, total granulocyte lineage, over uncultured cells", "setting": "[1]; [2]", "result": 370, "unit": "fold"}, {"measurement": "fold increase of per-expanded-day-1-CD34+ cell output, monocyte lineage, over uncultured cells", "setting": "[1]; [3]", "result": "108,000 fold"}, {"measurement": "fold increase of per-expanded-day-1-CD34+ cell output, total granulocyte lineage, over uncultured cells", "setting": "[1]; [3]", "result": "67,000 fold"}]}]}
